From the SangsterLogP compilation
Residues, ends and D or L forms follow the SMILES beside them.

Assay: method code SF, from Hansch, C. & Leo, A. (1987). Log P database [Dataset]. Pomona College Medicinal Chemistry Project.
Conditions: not given

Structure (SMILES) | logP
CN(Cc1ccccc1)/N=N/c1ccc(C#N)cc1 | 3.82
O=C(Nc1ccccc1)NC(CO)(CO)CO | 0.43
CN(C(=O)CCBr)c1ccc(S(=O)(=O)N(C)C)cc1 | 1.13
O=C(CNC(=O)c1ccccc1)Oc1ccccc1 | 2.31
C(=C\c1ccccn1)/c1ccccn1 | 2.11
CC(=O)OCCOC(=O)c1ccccc1 | 1.85
FC(F)(F)c1ccccc1 | 2.9
CC(=C(C#N)C#N)c1ccccc1 | 2.1
CC1=NCCN1CCO | 0.04
CC(=O)N(C)/N=N/c1ccc(F)cc1 | 2.77
CCC(C)NC(=O)/C(Cl)=C\c1ccccc1 (stereo not drawn) | 3.52
NC(=O)[C@H](Cc1ccccc1)NC(=O)[C@@H](N)Cc1ccccc1 (H-Phe-Phe-NH2) | 1.13
CC(C)(Cc1ccccc1)NC(=O)N(CCCl)N=O | 3.73
O=C1c2c(O)ccc(O)c2C(=O)c2c(NCCNCCO)ccc(NCCNCCO)c21 | 0.07
CC(C)(O)C(Cl)(Cl)Cl | 2.03
CC(=O)Nc1ccccc1Br | 1.4
NC(=O)CCl | -0.53
NC(=O)COc1ccccc1 | 0.76
OC(c1nc2ccccc2[nH]1)C(O)c1nc2ccccc2[nH]1 (stereo not drawn) | 1.14
CC(C)CO | 0.65
Cc1cc(C)ncn1 | 0.62
OCC(F)(F)F | 0.32
CNC(=O)Oc1cc(C)c(Cl)cc1Cl | 3
Nc1c(S(=O)(=O)O)ccc2ccccc12 | -0.97
CCCc1ccc2c(c1)C(=O)c1ccc(NC(C)=O)cc1S2(=O)=O | 3.51
CNC(C)=O | -1.05

Structure (SMILES) | logP
Cc1ccc2[nH]c(C(O)C(O)c3nc4cc(C)ccc4[nH]3)nc2c1 (stereo not drawn) | 1.27
CC(=O)C(=Cc1ccc(F)cc1)C(C)=O | 1.65
O=C(C(=O)c1ccccc1)c1ccccc1 | 3.38
Cn1cnc2ccccc2c1=O | 0.69
CC(C)=NO | 0.12
O=C(O)c1ccc(C(F)(F)F)cc1 | 3.1
O=C(NC(CO)C(O)c1ccc(NC(=O)C2CC2)cc1)C(Cl)Cl (stereo not drawn) | 0.75
CCCCl | 2.04
CCN(CC)CCNc1ccc(C)c(Cl)c1 | 4.14
CN(C)CCN(C)C | 0.3
CCC1(C(C)CC(C)O)C(=O)NC(=O)NC1=O (stereo not drawn) | 0.35
c1cn[nH]c1 | 0.13
O=C(O)c1ccsc1 | 1.5
COc1cc(OCCOC(=O)c2ccccc2)ccc1C=NO | 2.94
CCOS(=O)(=O)c1ccc(C)cc1 | 1.81
CC(=O)c1ccc([C@@H](O)[C@@H](CO)NC(=O)C(Cl)Cl)cc1 | 0.57
CNc1ccccc1[N+](=O)[O-] | 2.18
CCCCC(=O)Nc1ccc(Cl)c(Cl)c1 | 4.17
CCC(C)=O | 0.5
C1=CCOC1 | 0.46
c1ccc2[nH]nnc2c1 | 1.33
CCc1ccc(NC(C)=O)cc1 | 2.11
CCC(=O)OCC(=O)[C@@]1(OC(=O)CC)[C@@H](C)C[C@H]2[C@@H]3CCC4=CC(=O)C=C[C@]4(C)[C@@]3(F)[C@@H](O)C[C@@]21C | 4.07
NC(=O)c1ccc(F)cc1 | 0.91
O=C(/C=C/c1ccccc1)N1CCCCC1 | 2.74
CCc1n[nH]c(=O)[nH]c1=O | 0.22

Structure (SMILES) | logP
CC(C)(C)[N+]([O-])=NC#N | 1.4
O=NN(CCCl)C(=O)NC1CCC(O)CC1 (stereo not drawn) | 1.11
O=C1CCCN1CCOc1ccc([N+](=O)[O-])cc1 | 1.33
CCOc1ccc(C(N)=O)cc1 | 1.3
COP(=O)(OC)OC | -0.52
O=C(O)c1ccncc1 | -0.57
O=C(NCC(O)c1ccc([N+](=O)[O-])cc1)C(F)(F)F (stereo not drawn) | 1.46
CC1CCCC1 | 3.37
COc1ccc2cnccc2c1 | 2.22
ICCCc1ccccc1 | 3.9
OCCCCCl | 0.85
O=CN(Cc1ccccc1)c1ccccc1 | 2.62
CC(=S)Nc1ccccc1 | 1.71
Cc1ccncc1 | 1.22
O=C(Cc1ccccc1)Nc1ccc(Cl)c(Cl)c1 | 4.47
O=c1[nH]cc(Br)c(=O)[nH]1 | -0.21
CC1CCCCC1(C)NC(=O)N(CCCl)N=O (stereo not drawn) | 2.57
CC(=O)Nc1ccc(S(=O)(=O)F)cc1 | 2.17
O=S1(=O)NC(C2CC=CC2)=Nc2ccccc21 | 1.53
CCC1OC(=O)C(C)C(OC2CC(C)(OC)C(O)C(C)O2)C(C)C(OC2OC(C)CC(N(C)C)C2O)C(C)(O)CC(C)C(=O)C(C)C(OC(C)=O)C1C (stereo not drawn) | 3.32
CC[N+](=O)[O-] | 0.18
CCOCCOC(=O)C(C#N)=C(CC)NCc1ccc([N+](=O)[O-])cc1 | 2.64
CSc1ccc(NC(C)=O)cc1 | 2.03
COc1nnccc1N(C)C | 0.9
CN(C)/N=N/c1cc(C#N)cc(C#N)c1 | 2.18
O=C(CCl)Nc1ccc(Cl)c(Cl)c1 | 3.29

Structure (SMILES) | logP
O=[N+]([O-])c1ccccc1C(F)(F)F | 2.58
CNC(=O)Oc1ccccc1C1OCCO1 | 0.67
O=C(O)CCl | 0.22
Cc1csc(N=C(N)N)n1 | 1.24
C#CCO | -0.38
Nc1cc(C(F)(F)F)cc(C(F)(F)F)c1 | 3.57
CNc1cccc2ccccc12 | 2.88
Nc1cccc(Cl)c1 | 1.9
NN=C(c1ccccc1)c1ccccc1 | 2.79
c1ccc(CNc2ccccc2)cc1 | 3.13
CCCCCCC1CCC(=O)O1 (stereo not drawn) | 2.72
CN(Cc1ccc([N+](=O)[O-])cc1)/N=N/c1ccc(C(=O)O)cc1 | 4.03
Cl/C=C/Cl | 2.09
CCC(=O)Nc1ccccc1 | 1.61
c1ccc2cnncc2c1 | 0.57
O=[N+]([O-])c1ccc(C(F)(F)F)cc1 | 2.55
CCOC(=O)OCC | 1.21
CC(=O)CCN(C)c1ccc(S(=O)(=O)N(C)C)cc1 | 0.23
CCOc1ccccc1OC | 1.73
Cc1cc(CSc2ccccc2C(C)C)c(O)c(C(=O)O)c1 | 4.36
CCCOc1cccc(C=C(C(C)=O)C(=O)OCC)c1 | 3.34
CCCCC1OC(=O)c2cc(O)ccc21 (stereo not drawn) | 3.12
O=C1CCN(c2ccccc2)N1 | 0.89
C[C@@H]1C[C@H]2[C@@H]3CCC4=CC(=O)C=C[C@]4(C)[C@@]3(F)[C@@H](O)C[C@]2(C)[C@@]1(O)C(=O)CO | 1.99
CCOC(=O)C(=Cc1cccc([N+](=O)[O-])c1)C(=O)OCC | 2.71
CCSc1ccccc1 | 3.2

Structure (SMILES) | logP
O=C1C=CCCC1 | 0.61
CC(=O)NNC(=O)c1ccccn1 | -0.59
CCC(C)NC(=O)C(=Cc1ccccc1)OC (stereo not drawn) | 2.86
Nc1nc(O)c2nc[nH]c2n1 | -0.91
Oc1cccnc1 | 0.48
COc1ccc(-c2ncc[nH]2)c(OC)c1 | 1.72
NC(=O)c1ccc(C(F)(F)F)cc1 | 1.71
COc1cc(C=NO)ccc1OCCO | 0.82
CCC(C)NC(=O)C=Cc1ccc(Cl)cc1 (stereo not drawn) | 3.37
O=C(Nc1ccc(Cl)c(Cl)c1)C(F)(F)F | 3.9
c1cnc2ncncc2n1 | -0.58
N#CCC(N)=C(C#N)C#N | -0.13
Cn1nnc2ccccc2c1=O | 0.84
N#CCc1ccco1 | 0.85
OC(c1nc2cc(Cl)ccc2[nH]1)C(O)c1nc2cc(Cl)ccc2[nH]1 (stereo not drawn) | 1.21
CS(=O)(=O)N(c1ccccc1)S(C)(=O)=O | 0.62
Oc1ccccc1-c1ccccc1 | 3.09
O=S1(=O)NC(c2ccco2)=Nc2ccccc21 | 1.06
Cc1cccc([N+]([O-])=NC#N)c1 | 2.49
CC(=O)Oc1ccccc1C(C)C | 2.78
O=C(Nc1ccccc1)c1cc(N2CC2)c([N+](=O)[O-])cc1[N+](=O)[O-] | 2.23
COc1cc(OC)c(OC)cc1CC(C)N (stereo not drawn) | 1.74

Same assay, conditions: pH 1.0

Structure (SMILES) | logD
O=C(O)C(c1ccccc1)c1ccccc1 | 3.09
O=C(O)c1ccccc1-c1ccccc1 | 2.89
CS(=O)(=O)F | 0.55
O=C(O)c1cccc([N+](=O)[O-])c1C(=O)O | 0.75
O=C(O)c1ccccc1Oc1ccccc1 | 3.11
O=C(O)COc1ccccc1F | 1.39

Same assay, conditions: pH 2.0

Structure (SMILES) | logD
CCCCc1ccc(C(=O)O)nc1 | 0.68

Same assay, conditions: pH 3.0

Structure (SMILES) | logD
CC(=O)OCC1=C(C(=O)O)N2C(=O)C(NC(=O)Cc3ccccc3)C2SC1 (stereo not drawn) | 0.2
Cc1nnc(SCC2=C(C(=O)O)N3C(=O)C(NC(=O)Cc4cccs4)C3SC2)s1 (stereo not drawn) | 0.67

Same assay, conditions: pH 4.2

Structure (SMILES) | logD
NC(=O)c1nc[nH]c1N=NN(CCO)Cc1ccccc1 | 0.99

Same assay, conditions: pH 5.0

Structure (SMILES) | logD
O=S(Cc1ccccn1)c1nc2ccccc2[nH]1 (stereo not drawn) | 1.33
O=[N+]([O-])c1ccc2oncc2c1 | 1.46

Same assay, conditions: pH 5.9

Structure (SMILES) | logD
CCOc1cc(Oc2ccc(C(F)(F)F)cc2Cl)ccc1[N+](=O)[O-] | 4.7

Same assay, conditions: pH 7.0

Structure (SMILES) | logD
CC(=O)c1ccc(N(C)C)cc1 | 2.1
O=[N+]([O-])c1cccc(C(F)(F)F)c1 | 2.62
CCOC(=O)c1cccc([N+](=O)[O-])c1 | 2.35

Same assay, conditions: pH 7.4

Structure (SMILES) | logD
COc1ccc(-n2c(C)c(N(C)C)c(=O)n(C)c2=O)cc1 | 1.96
Cc1c(N2CCCCC2)c(=O)n(-c2ccccc2)c(=O)n1C | 2.76
CC(=O)OC[C@]12CCC(C)=C[C@H]1O[C@@H]1[C@H](O)[C@@H](OC(C)=O)[C@@]2(C)[C@]12CO2 | 0.91
CN(C)/N=C/CCc1ccccc1 | 2.05
CSc1ccccc1/N=N/N(C)C | 3.13
CC(O)C(C)(C)C(O)C(=O)OCC1=CC[N+]2([O-])CCC(O)C12 (stereo not drawn) | -1.52
CO[C@H]1O[C@H](CO)[C@@H](O)[C@H](NC(=O)N(C)N=O)[C@H]1O | -1.45
C=CCn1c(C)c(N(C)C)c(=O)n(-c2ccccc2)c1=O | 1.44

Same assay, conditions: pH 11.0

Structure (SMILES) | logD
CN(C)CCCCc1cccnc1 | 1.49
CC(C)NCc1cccnc1 | 0.82
c1cncc(CN2CCCC2)c1 | 1.1

Same assay, conditions: pH 12.0

Structure (SMILES) | logD
CN(CCO)N=Nc1ccccc1 | 1.71
CC1(C)N=C(N)N=C(N)N1c1cccc([N+](=O)[O-])c1 | 0.06

Same assay, conditions: pH 12.3

Structure (SMILES) | logD
CCCC1CNC(C(=O)NC(C(C)O)C2OC(SC)C(O)C(O)C2O)C1 (stereo not drawn) | 0.04

Same assay, conditions: pH 13.0

Structure (SMILES) | logD
COC(OC)OC | 0.25
CC1(C)N=C(N)N=C(N)N1c1cccc(COc2cccc(NC(N)=O)c2)c1 | 0.9
